Key:
[1] = Hemolytic activity, spectrophotometric; format: cell-based, human; conditions: human, human red blood cells (huRBC), 5% hematocrit, 200 μg/mL, 37 °C
CCRF-CEM = assay: cells; conditions: Homo sapiens, 48 h; for CC50: read-out: LC50
HL-60(TB) = assay: cells; conditions: Homo sapiens, HL-60, 48 h; for CC50: read-out: LC50
K-562 = assay: cells; conditions: Homo sapiens, K562, 48 h; for GI50: K-562, 48 h; for CC50: read-out: LC50
EKVX = assay: cells; conditions: Homo sapiens, 48 h; for CC50: read-out: LC50
HOP-62 = assay: cells; conditions: Homo sapiens, HOP-62, 48 h; for CC50: read-out: LC50
NCI-H322M = assay: cells; conditions: Homo sapiens, 48 h; for CC50: read-out: LC50
NCI-H460 = assay: cells; conditions: Homo sapiens, NCI-H460, 48 h; for CC50: read-out: LC50
COLO 205 = assay: cells; conditions: Homo sapiens, COLO 205, 48 h; for CC50: read-out: LC50
HCC-2998 = assay: cells; conditions: Homo sapiens, HCC 2998, 48 h; for CC50: read-out: LC50
HCT-15 = assay: cells; conditions: Homo sapiens, HCT-15, 48 h; for CC50: read-out: LC50
HT29 = assay: cells; conditions: Homo sapiens, HT-29, 48 h; for CC50: read-out: LC50
KM12 = assay: cells; conditions: Homo sapiens, KM12, 48 h; for CC50: read-out: LC50
SF-268 = assay: cells; conditions: Homo sapiens, SF-268, 48 h; for CC50: read-out: LC50
SF-295 = assay: cells; conditions: Homo sapiens, SF-295, 48 h; for CC50: read-out: LC50
SF-539 = assay: cells; conditions: Homo sapiens, SF-539, 48 h; for CC50: read-out: LC50, SF-539, 48 h
SNB-75 = assay: cells; conditions: Homo sapiens, SNB-75, 48 h; for CC50: read-out: LC50
MALME-3M = assay: cells; conditions: Homo sapiens, 48 h; for CC50: read-out: LC50
M14 = assay: cells; conditions: Homo sapiens, M14, 48 h; for CC50: read-out: LC50
SK-MEL-28 = assay: cells; conditions: Homo sapiens, SK-MEL-28, 48 h; for CC50: read-out: LC50
SK-MEL-5 = assay: cells; conditions: Homo sapiens, SK-MEL-5, 48 h; for CC50: read-out: LC50
UACC-257 = assay: cells; conditions: Homo sapiens, UACC-257, 48 h; for CC50: read-out: LC50
UACC-62 = assay: cells; conditions: Homo sapiens, UACC-62, 48 h; for CC50: read-out: LC50
OVCAR-3 = assay: cells; conditions: Homo sapiens, OVCAR-3, 48 h; for CC50: read-out: LC50
OVCAR-4 = assay: cells; conditions: Homo sapiens, OVCAR-4, 48 h; for CC50: read-out: LC50
OVCAR-5 = assay: cells; conditions: Homo sapiens, OVCAR-5, 48 h; for CC50: read-out: LC50
OVCAR-8 = assay: cells; conditions: Homo sapiens, OVCAR-8, 48 h; for CC50: read-out: LC50
SK-OV-3 = assay: cells; conditions: Homo sapiens, SK-OV-3, 48 h; for CC50: read-out: LC50
786-0 = assay: cells; conditions: Homo sapiens, 786-0, 48 h; for CC50: read-out: LC50
A498 = assay: cells; conditions: Homo sapiens, A498, 48 h; for CC50: read-out: LC50
CAKI-1 = assay: cells; conditions: Homo sapiens, CAKI-1, 48 h; for CC50: read-out: LC50
SN12C = assay: cells; conditions: Homo sapiens, 48 h; for CC50: read-out: LC50
TK-10 = assay: cells; conditions: Homo sapiens, TK-10, 48 h; for CC50: read-out: LC50
UO-31 = assay: cells; conditions: Homo sapiens, UO-31, 48 h; for CC50: read-out: LC50
MCF7 = assay: cells; conditions: Homo sapiens, MCF7, 48 h; for CC50: read-out: LC50
HS 578T = assay: cells; conditions: Homo sapiens, 48 h; for CC50: read-out: LC50
MDA-MB-468 = assay: cells; conditions: Homo sapiens, MDA-MB-468, 48 h; for CC50: read-out: LC50

## COc1cc(/C=C/C(=O)c2ccccc2)ccc1Oc1nc(Nc2ccc(F)cc2)nc(N(C)C)n1 [21a]
[1]
  hemolysis at 24 h, 200 µg/mL: 2%
CCRF-CEM
  GI50: 3.38 µM
  CC50: > 100 µM
HL-60(TB)
  GI50: 8.37 µM
  CC50: > 100 µM
K-562
  GI50: 3.57 µM
  CC50: > 100 µM
EKVX
  GI50: 4.73 µM
  CC50: > 100 µM
HOP-62
  GI50: 26.6 µM
  CC50: > 100 µM
NCI-H322M
  GI50: 28.7 µM
  CC50: > 100 µM
NCI-H460
  GI50: 9.14 µM
  CC50: 93.2 µM
COLO 205
  GI50: 15.1 µM
  CC50: > 100 µM
HCC-2998
  GI50: 12.9 µM
  CC50: > 100 µM
HCT-15
  GI50: 3.31 µM
  CC50: 36.2 µM
HT29
  GI50: 4.36 µM
  CC50: 59.7 µM
KM12
  GI50: 14.9 µM
  CC50: > 100 µM
SF-268
  GI50: 12.2 µM
  CC50: > 100 µM
SF-295
  GI50: 6.89 µM
  CC50: > 100 µM
SF-539
  GI50: 13.8 µM
  CC50: 51.7 µM
SNB-75
  GI50: 4.7 µM
  CC50: > 100 µM
MALME-3M
  GI50: 15.9 µM
  CC50: 98.8 µM
M14
  GI50: 13 µM
  CC50: > 100 µM
SK-MEL-28
  GI50: 12.2 µM
  CC50: 84.6 µM
SK-MEL-5
  GI50: 6.21 µM
  CC50: > 100 µM
UACC-257
  GI50: 6.44 µM
  CC50: > 100 µM
UACC-62
  GI50: 4.99 µM
  CC50: 79.4 µM
OVCAR-3
  GI50: 11.8 µM
  CC50: > 100 µM
OVCAR-4
  GI50: 5.85 µM
  CC50: > 100 µM
OVCAR-5
  GI50: 13.9 µM
  CC50: > 100 µM
OVCAR-8
  GI50: 5.9 µM
  CC50: 97.6 µM
SK-OV-3
  GI50: 48.6 µM
  CC50: > 100 µM
786-0
  GI50: 20.5 µM
  CC50: > 100 µM
A498
  GI50: 27 µM
  CC50: > 100 µM
CAKI-1
  GI50: 5.72 µM
  CC50: > 100 µM
SN12C
  GI50: 7.32 µM
  CC50: 54.5 µM
TK-10
  GI50: 18 µM
  CC50: > 100 µM
UO-31
  GI50: 4.4 µM
  CC50: > 100 µM
MCF7
  GI50: 3.08 µM
  CC50: 78.2 µM
HS 578T
  GI50: 5.44 µM
  CC50: > 100 µM
MDA-MB-468
  GI50: 3.21 µM
  CC50: > 100 µM

## COc1cc(/C=C/C(=O)c2ccc(C)cc2)ccc1Oc1nc(Nc2ccc(F)cc2)nc(N(C)C)n1 [21b]
[1]
  hemolysis at 24 h, 200 µg/mL: 13%
CCRF-CEM
  GI50: 3.92 µM
  CC50: > 100 µM
HL-60(TB)
  GI50: 19.1 µM
  CC50: > 100 µM
K-562
  GI50: 4.2 µM
  CC50: > 100 µM
EKVX
  GI50: 6.71 µM
  CC50: > 100 µM
HOP-62
  GI50: 32.2 µM
  CC50: > 100 µM
NCI-H322M
  GI50: 51.9 µM
  CC50: > 100 µM
NCI-H460
  GI50: 12.1 µM
  CC50: > 100 µM
COLO 205
  GI50: 41.7 µM
  CC50: > 100 µM
HCC-2998
  GI50: 20.5 µM
  CC50: > 100 µM
HCT-15
  GI50: 4.73 µM
  CC50: 43.4 µM
HT29
  GI50: 8.15 µM
  CC50: > 100 µM
KM12
  GI50: 19.3 µM
  CC50: > 100 µM
SF-268
  GI50: 13.9 µM
  CC50: > 100 µM
SF-295
  GI50: 8.61 µM
  CC50: > 100 µM
SF-539
  GI50: 7.64 µM
  CC50: 44.9 µM
SNB-75
  GI50: 15.4 µM
  CC50: > 100 µM
MALME-3M
  GI50: 15.4 µM
  CC50: 72.3 µM
M14
  GI50: 14.7 µM
  CC50: > 100 µM
SK-MEL-28
  GI50: 12.3 µM
  CC50: 79.6 µM
SK-MEL-5
  GI50: 5.14 µM
  CC50: 78.5 µM
UACC-257
  GI50: 8.76 µM
  CC50: > 100 µM
UACC-62
  GI50: 10.1 µM
  CC50: > 100 µM
OVCAR-3
  GI50: 13 µM
  CC50: > 100 µM
OVCAR-4
  GI50: 7.94 µM
  CC50: > 100 µM
OVCAR-5
  GI50: 16.5 µM
  CC50: > 100 µM
OVCAR-8
  GI50: 7.19 µM
  CC50: > 100 µM
SK-OV-3
  GI50: 48.9 µM
  CC50: > 100 µM
786-0
  GI50: 13.3 µM
  CC50: > 100 µM
A498
  GI50: 41.8 µM
  CC50: > 100 µM
CAKI-1
  GI50: 6.43 µM
  CC50: > 100 µM
SN12C
  GI50: 3.89 µM
  CC50: 73 µM
TK-10
  GI50: 18.2 µM
  CC50: > 100 µM
UO-31
  GI50: 4.2 µM
  CC50: > 100 µM
MCF7
  GI50: 3.57 µM
  CC50: > 100 µM
HS 578T
  GI50: 7.24 µM
  CC50: > 100 µM
MDA-MB-468
  GI50: 4.64 µM
  CC50: > 100 µM

— article PMC11012124, “Synthesis of Novel Triazine-Based Chalcones and 8,9-dihydro-7H-pyrimido[4,5-b][1,4]diazepines as Potential Leads in the Search of Anticancer, Antibacterial and Antifungal Agents” (International Journal of Molecular Sciences, 2024)
